According to ChEMBL document CHEMBL1140388, “Privileged structure-based ligands for melanocortin receptors-tetrahydroquinolines, indoles, and aminotetralines” (Bioorg Med Chem Lett, 2005):
pKi: −log10 of the molar value.

What was measured:
Melanocortin receptor 4 = Melanocortin receptor 4 (Homo sapiens, UniProt P32245); test: Inhibition of [125I]-NDP MSH binding towards human melanocortin 4 receptor
Melanocortin receptor 5 = Melanocortin receptor 5 (Homo sapiens, UniProt P33032); test: Inhibition of [125I]-NDP MSH binding towards human melanocortin 5 receptor
[1] = target: Melanocortin receptor (M1 and M4) (Homo sapiens) (UniProt P32245+Q01726); test: Binding selectivity across hMC 4 and hMC 1 by determining the competitive inhibition of [125 I]NDP MSH binding; format: protein assay
[2] = target: Melanocortin receptor (M4 and M5) (Homo sapiens) (UniProt P32245+P33032); test: Binding selectivity across hMC 4 and hMC 5 by determining the competitive inhibition of [125 I]NDP MSH binding; format: protein assay
Melanocortin receptor 3 = Melanocortin receptor 3 (Homo sapiens, UniProt P41968); test: Inhibition of [125I]-NDP MSH binding towards human melanocortin 3 receptor
[3] = target: Melanocyte-stimulating hormone receptor (Homo sapiens, UniProt Q01726); test: Inhibition of [125I]-NDP MSH binding towards human melanocortin 1 receptor
[4] = target: Melanocortin receptor (M3 and M4) (Homo sapiens) (UniProt P32245+P41968); test: Binding selectivity across hMC 4 and hMC 3 by determining the competitive inhibition of [125 I]NDP MSH binding; format: protein assay

Melanocortin receptor (M4 and M5) (Homo sapiens), sequence (P32245 whole entry, looked up): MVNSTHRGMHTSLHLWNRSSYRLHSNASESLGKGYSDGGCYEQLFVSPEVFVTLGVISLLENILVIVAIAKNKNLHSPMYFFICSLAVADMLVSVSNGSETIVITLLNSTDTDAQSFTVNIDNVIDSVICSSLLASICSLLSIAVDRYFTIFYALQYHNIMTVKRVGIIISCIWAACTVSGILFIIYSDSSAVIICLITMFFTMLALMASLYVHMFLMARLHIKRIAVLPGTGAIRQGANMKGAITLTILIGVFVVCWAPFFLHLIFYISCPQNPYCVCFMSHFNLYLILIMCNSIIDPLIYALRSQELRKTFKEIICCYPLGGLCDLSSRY
Melanocortin receptor (M4 and M5) (Homo sapiens), sequence (P33032 whole entry, looked up): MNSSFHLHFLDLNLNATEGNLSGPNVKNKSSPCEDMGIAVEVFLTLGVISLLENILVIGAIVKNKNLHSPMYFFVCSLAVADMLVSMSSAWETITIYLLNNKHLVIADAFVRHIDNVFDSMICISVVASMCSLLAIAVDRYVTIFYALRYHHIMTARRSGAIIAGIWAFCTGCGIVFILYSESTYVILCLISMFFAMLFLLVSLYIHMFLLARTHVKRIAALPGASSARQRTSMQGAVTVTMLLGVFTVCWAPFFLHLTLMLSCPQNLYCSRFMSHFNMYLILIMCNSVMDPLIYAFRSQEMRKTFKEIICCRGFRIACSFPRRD
Melanocortin receptor 4, sequence (P32245 whole entry): as the sequence (P32245 whole entry, looked up) above
Melanocortin receptor 3, sequence (P41968 whole entry): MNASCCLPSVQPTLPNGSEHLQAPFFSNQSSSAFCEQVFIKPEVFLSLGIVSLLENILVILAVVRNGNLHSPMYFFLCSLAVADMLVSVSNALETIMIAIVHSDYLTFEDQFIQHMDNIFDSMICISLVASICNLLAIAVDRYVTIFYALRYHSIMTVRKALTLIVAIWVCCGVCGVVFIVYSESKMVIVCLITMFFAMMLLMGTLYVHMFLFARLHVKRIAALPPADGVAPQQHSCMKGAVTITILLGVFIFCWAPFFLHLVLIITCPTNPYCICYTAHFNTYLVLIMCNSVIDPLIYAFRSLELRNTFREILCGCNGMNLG
Melanocyte-stimulating hormone receptor, sequence (Q01726 whole entry): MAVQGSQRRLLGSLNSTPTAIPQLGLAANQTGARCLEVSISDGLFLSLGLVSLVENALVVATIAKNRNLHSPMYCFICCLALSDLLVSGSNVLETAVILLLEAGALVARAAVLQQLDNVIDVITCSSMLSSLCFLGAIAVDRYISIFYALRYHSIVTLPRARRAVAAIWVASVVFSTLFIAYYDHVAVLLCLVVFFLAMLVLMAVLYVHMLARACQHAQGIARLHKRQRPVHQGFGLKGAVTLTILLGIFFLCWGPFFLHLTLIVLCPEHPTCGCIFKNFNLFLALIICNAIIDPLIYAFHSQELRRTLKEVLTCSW
Melanocortin receptor 5, sequence (P33032 whole entry): as the sequence (P33032 whole entry, looked up) above

pKi (Melanocortin receptor 4) | Compound | further results
7.10 | CN(C)[C@@H]1CCc2cccc(N3CCN(C(=O)[C@@H](Cc4ccc(Cl)cc4)NC(=O)[C@H]4Cc5ccccc5CN4)CC3)c2C1 | 
5.32 | O=C(N[C@H](Cc1ccc(Cl)cc1)C(=O)N1CCN(c2cccc3cc[nH]c23)CC1)[C@H]1Cc2ccccc2CN1 | 
6.62 | NC1CCc2cccc(N3CCN(C(=O)[C@@H](Cc4ccc(Cl)cc4)NC(=O)[C@H]4Cc5ccccc5CN4)CC3)c2C1 (stereo partly drawn) | 
6.72 | CCN1CCc2cccc(N3CCN(C(=O)[C@@H](Cc4ccc(Cl)cc4)NC(=O)[C@H]4Cc5ccccc5CN4)CC3)c2C1 | 
6.82 | CNC1CCc2cccc(N3CCN(C(=O)[C@@H](Cc4ccc(Cl)cc4)NC(=O)[C@H]4Cc5ccccc5CN4)CC3)c2C1 (stereo partly drawn) | 
6.55 | CN1CCc2cccc(N3CCN(C(=O)[C@@H](Cc4ccc(Cl)cc4)NC(=O)[C@H]4Cc5ccccc5CN4)CC3)c2C1 | 
5.60 | O=C(N[C@H](Cc1ccc(Cl)cc1)C(=O)N1CCN(c2cccc3c2CN(S(=O)(=O)c2ccccc2)CC3)CC1)[C@H]1Cc2ccccc2CN1 | pKi (Melanocortin receptor 5): 6.15; Binding selectivity [1]: 23; Binding selectivity [2]: 2.6; pKi (Melanocortin receptor 3): 5.92; pKi [3]: 5.15; Binding selectivity [4]: 4
6.22 | CS(=O)(=O)N1CCc2cccc(N3CCN(C(=O)[C@@H](Cc4ccc(Cl)cc4)NC(=O)[C@H]4Cc5ccccc5CN4)CC3)c2C1 | 
6.02 | CC(C)S(=O)(=O)N1CCc2cccc(N3CCN(C(=O)[C@@H](Cc4ccc(Cl)cc4)NC(=O)[C@H]4Cc5ccccc5CN4)CC3)c2C1 | 
5.11 | CC(=O)N1CCCc2cccc(N3CCN(C(=O)[C@@H](Cc4ccc(Cl)cc4)NC(=O)[C@H]4Cc5ccccc5CN4)CC3)c21 | pKi (Melanocortin receptor 5): 5.40; Binding selectivity [1]: 23; Binding selectivity [2]: 5; pKi (Melanocortin receptor 3): 6.30; pKi [3]: 4.70; Binding selectivity [4]: 0.6
6.05 | CS(=O)(=O)N1CCc2cccc(N3CCN(C(=O)C(Cc4ccc(Cl)cc4)NC(=O)[C@H]4Cc5ccccc5CN4)CC3)c21 (stereo partly drawn) | 
6.74 | CCCN(CCC)C1CCc2cccc(N3CCN(C(=O)[C@@H](Cc4ccc(Cl)cc4)NC(=O)[C@H]4Cc5ccccc5CN4)CC3)c2C1 (stereo partly drawn) | 
6.30 | CC(=O)N1CCc2cccc(N3CCN(C(=O)[C@@H](Cc4ccc(Cl)cc4)NC(=O)[C@H]4Cc5ccccc5CN4)CC3)c2C1 | 
7.15 | CN(C)C1CCc2cccc(N3CCN(C(=O)[C@@H](Cc4ccc(Cl)cc4)NC(=O)[C@H]4Cc5ccccc5CN4)CC3)c2C1 (stereo partly drawn) | pKi (Melanocortin receptor 5): 6.55; Binding selectivity [1]: 72; Binding selectivity [2]: 5.6; pKi (Melanocortin receptor 3): 5.09; pKi [3]: 5.40; Binding selectivity [4]: 164
7.30 | CN(C)[C@H]1CCc2cccc(N3CCN(C(=O)[C@@H](Cc4ccc(Cl)cc4)NC(=O)[C@H]4Cc5ccccc5CN4)CC3)c2C1 | 
5.41 | CS(=O)(=O)N1CCc2c(cccc2N2CCN(C(=O)[C@@H](Cc3ccc(Cl)cc3)NC(=O)[C@H]3Cc4ccccc4CN3)CC2)C1 | 
5.38 | O=C(N[C@H](Cc1ccc(Cl)cc1)C(=O)N1CCN(c2cccc3c2CCCC3)CC1)[C@H]1Cc2ccccc2CN1 | pKi (Melanocortin receptor 5): 6.59; Binding selectivity [1]: 47; Binding selectivity [2]: 3.8; pKi (Melanocortin receptor 3): 5.92; pKi [3]: 5.52; Binding selectivity [4]: 181
6.77 | CCN(CC)C1CCc2cccc(N3CCN(C(=O)[C@@H](Cc4ccc(Cl)cc4)NC(=O)[C@H]4Cc5ccccc5CN4)CC3)c2C1 (stereo partly drawn) | 
6.05 | CS(=O)(=O)N1CCCc2cccc(N3CCN(C(=O)C(Cc4ccc(Cl)cc4)NC(=O)[C@H]4Cc5ccccc5CN4)CC3)c21 (stereo partly drawn) | 
6.39 | CC(=O)NC1CCc2cccc(N3CCN(C(=O)[C@@H](Cc4ccc(Cl)cc4)NC(=O)[C@H]4Cc5ccccc5CN4)CC3)c2C1 (stereo partly drawn) | 
5.68 | O=C(N[C@H](Cc1ccc(Cl)cc1)C(=O)N1CCN(c2cccc3c2NCC3)CC1)[C@H]1Cc2ccccc2CN1 | 
6.28 | CN(C1CCc2cccc(N3CCN(C(=O)[C@@H](Cc4ccc(Cl)cc4)NC(=O)[C@H]4Cc5ccccc5CN4)CC3)c2C1)S(C)(=O)=O (stereo partly drawn) | 
5.80 | O=C(N[C@H](Cc1ccc(Cl)cc1)C(=O)N1CCN(c2cccc3c2NCCC3)CC1)[C@H]1Cc2ccccc2CN1 | 
6.15 | CCN1CCc2c(cccc2N2CCN(C(=O)[C@@H](Cc3ccc(Cl)cc3)NC(=O)[C@H]3Cc4ccccc4CN3)CC2)C1 | 
